Test results from PubChem BioAssay AID1648 (Sanford-Burnham Center for Chemical Genomics, 2009).
Activity calls are given as the source filed them. No rule for the calls is given here.

Molecular target: Serine/threonine-protein kinase mTOR (Homo sapiens) (UniProt P42345)
Test: binders of mTOR FRB domain, biophysical, NMR (AID 1648)
Conditions: NMR binding to FRB domain, chemical shift

Sequence of Serine/threonine-protein kinase mTOR (Homo sapiens) (P42345 2015-2114): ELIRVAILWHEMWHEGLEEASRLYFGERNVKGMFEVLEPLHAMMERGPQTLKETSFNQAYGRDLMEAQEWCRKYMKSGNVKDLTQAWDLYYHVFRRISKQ

## CCC(C)C(=O)O[C@H]1[C@H](O)C2C(CN3CC(C)CCC3[C@@]2(C)O)C2C[C@]34O[C@]5(O)C(OC(=O)C(C)(O)C(C)O)CC[C@@]3(C)C5C(OC(C)=O)[C@@H](OC(C)=O)C4[C@@]21O (some centres undefined)
  Kd: > 4 mM (inactive)

## CC(C)=CCCC1(C)C=Cc2c(O)c3c(c(CC=C(C)C)c2O1)OC12C(=CC4CC1C(C)(C)OC2(C/C=C(/C)C(=O)O)C4O)C3=O (centres undefined)
  Kd: > 4 mM (inactive)

## Cc1occc1C(=O)Nc1ccc(C(N)=O)cc1
  Kd: > 4 mM (inactive)

## C=C(C)[C@H]1Cc2c(ccc3c2O[C@@H]2COc4cc(OC)c(OC)cc4[C@@H]2C3=O)O1
  Kd: > 4 mM (inactive)

## O=C(O)c1cccc(O)c1O
  Kd: > 4 mM (inactive)

## O=C1NC(=O)C(Cc2cccs2)C(=O)N1
  Kd: > 4 mM (inactive)

## O=C1CSC(=O)N1CN1CCCC1
  Kd: > 4 mM (inactive)

## CC(=O)N1CCn2c3c(c(=O)c4cc(C)ccc42)CCC31 (centres undefined)
  Kd: > 4 mM (inactive)

## Cn1[nH]c(C(F)(F)F)cc1=O
  Kd: > 4 mM (inactive)

## NC(=O)C1CCN(C(=S)c2cccs2)CC1
  Kd: > 4 mM (inactive)

## O=C(O)C1CC(=O)N(Cc2ccco2)C1 (centres undefined)
  Kd: > 4 mM (inactive)

## CCCn1c(S(=O)(=O)O)nc2ccccc21
  Kd: > 4 mM (inactive)

## O=P1(O)c2ccccc2Nc2ccccc21
  Kd: > 4 mM (inactive)

## Cc1nccc(-c2cccc(N)c2)n1
  Kd: > 4 mM (inactive)

## O=C(Nn1cnnc1)c1csc2c1CCCC2
  Kd: > 4 mM (inactive)

## NS(=O)(=O)c1ccc(NC(=O)c2ccccc2F)cc1
  Kd: > 4 mM (inactive)

## Cc1cc(C)n2nc(C(=O)NCc3ccco3)nc2n1
  Kd: > 4 mM (inactive)

## Cc1ccc(=O)[nH]c1
  Kd: > 4 mM (inactive)

## CCOC(=O)c1cnc2sccn2c1=O
  Kd: > 4 mM (inactive)

## CCCNC(CC(=O)Nc1cccnc1)C(=O)O (centres undefined)
  Kd: > 4 mM (inactive)

## NC(=O)COc1cccc2cccnc12
  Kd: > 4 mM (inactive)

## Cc1cc(N)n(-c2ccccc2)n1
  Kd: > 4 mM (inactive)

## NC(=O)c1cn(-c2ccccc2)nc1-c1cccnc1
  Kd: > 4 mM (inactive)

## Nc1ncnc2c1ncn2CCN1CCCCC1
  Kd: > 4 mM (inactive)

## c1nnc2c3c4c(sc3ncn12)CCCC4
  Kd: > 4 mM (inactive)

## COc1ccc(NC(=O)CSc2nccc(=O)[nH]2)cc1
  Kd: > 4 mM (inactive)

## C1CCN2C[C@@H]3C[C@H](CN4CCCC[C@@H]34)[C@H]2C1
  Kd: > 4 mM (inactive)

## Cc1cc(C)c(C#N)c(N2CCCC2)n1
  Kd: > 4 mM (inactive)

## COC(=O)C1=CO[C@@H](O[C@@H]2O[C@H](CO)[C@@H](O)[C@H](O)[C@H]2O)[C@@H]2[C@@H](C)[C@@H](O)C[C@H]12
  Kd: > 4 mM (inactive)

## C[C@H]1O[C@@H](O[C@H]2[C@@H](O)C[C@H](O[C@H]3[C@@H](O)C[C@H](O[C@H]4CC[C@]5(C)C6C[C@@H](O)[C@]7(C)[C@@H](C8=CC(=O)OC8)CC[C@]7(O)C6CC[C@@H]5C4)O[C@@H]3C)O[C@@H]2C)C[C@H](O)[C@@H]1O (some centres undefined)
  Kd: > 4 mM (inactive)

## CC(=O)N1CC2(C)CN(C(C)=O)CC(C)(C1)C2
  Kd: > 4 mM (inactive)

## COc1cc(C(C)=O)ccc1OC(=O)N1CCOCC1
  Kd: > 4 mM (inactive)

## O=C(c1ccco1)N1CCN(Cc2cccc(F)c2)CC1
  Kd: > 4 mM (inactive)

## Cc1sc(N)c(C(N)=O)c1C
  Kd: > 4 mM (inactive)

## O=C(/C=C(\O)c1ccccc1)c1ccccc1O
  Kd: > 4 mM (inactive)

## O=C(O)CCC(=O)Nc1ccccc1F
  Kd: > 4 mM (inactive)

## Nc1ccc2[nH]ccc2c1
  Kd: > 4 mM (inactive)

## Cc1cc(C)nc(/N=C(/N)N2CCOCC2)n1
  Kd: > 4 mM (inactive)

## CCOC(=O)c1[nH]c(C)cc1C
  Kd: > 4 mM (inactive)

## Nc1ccc(CCC(=O)O)cc1
  Kd: > 4 mM (inactive)

## O=C1CNC(=O)N1Cc1ccc(Br)cc1
  Kd: > 4 mM (inactive)

## CN(c1ccccc1C(=O)N1CCOCC1)S(C)(=O)=O
  Kd: > 4 mM (inactive)

## CC(=O)Nc1ccc(-c2nc(C)c(C(C)=O)n2O)cc1
  Kd: > 4 mM (inactive)

## O=C(CSc1ccnc(=O)[nH]1)NCc1ccccc1
  Kd: > 4 mM (inactive)

## CC(=O)Nc1cccc(N(C)S(C)(=O)=O)c1
  Kd: > 4 mM (inactive)

## Cn1c(CO)nc2ccccc21
  Kd: > 4 mM (inactive)

## Nc1cc(F)nc(F)n1
  Kd: > 4 mM (inactive)

## O=C(O)C1CC(=O)N(Cc2ccc(F)cc2)C1 (centres undefined)
  Kd: > 4 mM (inactive)

## CCc1cc(=O)[nH]c(SCC(=O)NCCOC)n1
  Kd: > 4 mM (inactive)

## Cn1c(SCC(N)=O)nnc1-c1cccnc1
  Kd: > 4 mM (inactive)

## NS(=O)(=O)c1ccc(NC(=O)C2CC2)cc1
  Kd: > 4 mM (inactive)

## Cn1cnnc1SCC(=O)Nc1nccs1
  Kd: > 4 mM (inactive)

## CN(C)C(=S)Nc1ccc([N+](=O)[O-])cc1
  Kd: > 4 mM (inactive)

## CC(=O)NC(=S)Nc1ccccc1N1CCOCC1
  Kd: > 4 mM (inactive)

## CC(C)[C@@H]1CC[C@@H](C)C[C@H]1O
  Kd: > 4 mM (inactive)

## COC(=O)c1cc2cc(N)ccc2s1
  Kd: > 4 mM (inactive)

## CN1CCN(C2CCN(Cc3ccccc3)CC2)CC1
  Kd: > 4 mM (inactive)

## CC1CN(C2=NCCN2)CC(C)O1 (centres undefined)
  Kd: > 4 mM (inactive)

## O=C(Cc1cccs1)Nc1nncs1
  Kd: > 4 mM (inactive)

## COC(=O)c1cncn1C
  Kd: > 4 mM (inactive)

## CSc1ccc2nnc(-c3cccnc3)n2n1
  Kd: > 4 mM (inactive)

## COc1ccccc1NC(=O)c1cc[n+]([O-])cc1
  Kd: > 4 mM (inactive)

## COc1ccc(NC(=O)CCCC(=O)O)c(OC)c1
  Kd: > 4 mM (inactive)

## OCc1nccn1Cc1ccccc1
  Kd: > 4 mM (inactive)

## Nc1cc(=O)[nH]c(=S)n1-c1ccc(F)cc1
  Kd: > 4 mM (inactive)

## Nc1ccc(-c2csnn2)cc1
  Kd: > 4 mM (inactive)

## CC(=O)N=c1cccc(NC(C)=O)n1O
  Kd: > 4 mM (inactive)

## COc1ccc2[nH]cc(CN(C)C)c2c1
  Kd: > 4 mM (inactive)

## CC(CC(O)C1OC1(C)C)[C@@H]1CCC2(C)C3=CCC4C(C)(C)C(=O)CCC4(C)C3CC[C@@]12C (some centres undefined)
  Kd: > 4 mM (inactive)

## O=C(NC1CC1)c1ccccc1[N+](=O)[O-]
  Kd: > 4 mM (inactive)

## NC(=O)CCS(=O)(=O)CCN1CCOCC1
  Kd: > 4 mM (inactive)

## Cc1cc(S(=O)(=O)N2CCOCC2)ccc1F
  Kd: > 4 mM (inactive)

## O=c1[nH]c(=S)c2c(n1-c1ccccc1)CCC2
  Kd: > 4 mM (inactive)

## OCC1CCN(Cc2ccccc2)CC1
  Kd: > 4 mM (inactive)

## NCc1ccc(CN2CCOCC2)cc1
  Kd: > 4 mM (inactive)

## CC(Sc1ncn[nH]1)C(=O)O (centres undefined)
  Kd: > 4 mM (inactive)

## C[C@@H]1CC[C@H]2[C@@H](C)C(=O)O[C@@H]3OC4(C)CC[C@@H]1[C@]32OO4
  Kd: > 4 mM (inactive)

## CSc1ccccc1NC(=O)c1cccnc1
  Kd: > 4 mM (inactive)

## O=C1C2CC=CCC2C(=O)N1c1ccccc1O (centres undefined)
  Kd: > 4 mM (inactive)

## NS(=O)(=O)c1ccc(N2CCCC2=O)cc1
  Kd: > 4 mM (inactive)

## CC1(C)C=CC(=O)[C@@]2(C)C1CC(=O)[C@]1(C)C2CC[C@@]2(C)[C@H](c3ccoc3)OC(=O)C3OC321 (some centres undefined)
  Kd: > 4 mM (inactive)

## O=C1NC(=Nc2ccccc2Cl)SC1(CO)CO
  Kd: > 4 mM (inactive)

## Cc1ccccc1NC(=O)N1CCOCC1
  Kd: > 4 mM (inactive)

## CC(=O)Nc1ccc(C(=O)n2nc(C)cc2C)cc1
  Kd: > 4 mM (inactive)

## NC(=O)COc1ccccc1O
  Kd: > 4 mM (inactive)

## O=C(NC(=S)NCCO)c1ccccc1
  Kd: > 4 mM (inactive)

## CCCc1cc2c(c(NC(C)=O)n1)c(=O)oc1ccccc12
  Kd: > 4 mM (inactive)

## COc1ccccc1N1C(=N)SCC1=O
  Kd: > 4 mM (inactive)

## Cc1nc2ccccc2c(=O)n1CCCO
  Kd: > 4 mM (inactive)

## c1ccc(-n2cnnc2)nc1
  Kd: > 4 mM (inactive)

## NCc1ccc2c(c1)OCCCO2
  Kd: > 4 mM (inactive)

## Nc1ccc(CN2CCOCC2)cc1
  Kd: > 4 mM (inactive)

## O=C1C2CCCCC2C(=O)N1c1ccc(O)cc1 (centres undefined)
  Kd: > 4 mM (inactive)

## CNC(=S)Nc1ccc(C(=O)O)cc1
  Kd: > 4 mM (inactive)

## Cc1ccc(CN2CCNC(=O)C2CC(=O)O)o1 (centres undefined)
  Kd: > 4 mM (inactive)

## O=C(CN1C(=O)CCC1=O)c1ccccc1
  Kd: > 4 mM (inactive)

## O=c1c(O)c(-c2ccccc2)oc2cc(O)ccc12
  Kd: > 4 mM (inactive)

## O=C(O)C1CSC(c2cccnc2)N1 (centres undefined)
  Kd: > 4 mM (inactive)

## Nc1ccc(Oc2ccccc2)nc1
  Kd: > 4 mM (inactive)

## Cc1ccc(C(=O)n2cnnc2N)cc1C
  Kd: > 4 mM (inactive)

## c1ccc(C[N+]23CCN(CC2)CC3)cc1
  Kd: > 4 mM (inactive)

## O=C1c2cccnc2C(=O)N1Cc1ccco1
  Kd: > 4 mM (inactive)

## NC(=O)c1ccc(N=Cc2ccc[nH]2)cc1
  Kd: > 4 mM (inactive)

## Cn1c(CNc2ccccc2)cc(=O)n(C)c1=O
  Kd: > 4 mM (inactive)

## O=C(O)CCCCC1SCC2NC(=O)NC21 (centres undefined)
  Kd: > 4 mM (inactive)

## O=S1(=O)CCC(NCc2ccccc2)C1 (centres undefined)
  Kd: > 4 mM (inactive)

## O=C(NC1=NCCS1)c1ccc(Cl)s1
  Kd: > 4 mM (inactive)

## CCC[C@H]1CC2=C(C[C@@H](CC)CC3=C1C(=O)OC3=O)C(=O)OC2=O
  Kd: > 4 mM (inactive)

## O=c1c(-c2cc(O)c(O)c(O)c2)coc2cc(O)c(O)c(O)c12
  Kd: > 4 mM (inactive)

## Cc1nc(-c2cc(CO)no2)cs1
  Kd: > 4 mM (inactive)

## CC(=O)Oc1ccc2c(c1OC(C)=O)OCC1(O)Cc3c(cc(OC(C)=O)c(OC(C)=O)c3OC(C)=O)C21 (centres undefined)
  Kd: > 4 mM (inactive)

## O=C(O)CC1NCCNC1=O (centres undefined)
  Kd: > 4 mM (inactive)

## Cc1nc2nc(-c3ccco3)nn2c(C)c1Cl
  Kd: > 4 mM (inactive)

## Cc1sc2nc(C)n(NC(N)=O)c(=O)c2c1C
  Kd: > 4 mM (inactive)

## CCC1C(=O)OCC1Cc1cncn1C (centres undefined)
  Kd: > 4 mM (inactive)

## Cn1nnc2cc(C(=O)N3CCSCC3)ccc21
  Kd: > 4 mM (inactive)

## NC(=O)c1c[nH]c2ccccc12
  Kd: > 4 mM (inactive)

## COC(=O)c1[nH]c2ccccc2c1C(=O)OC
  Kd: > 4 mM (inactive)

## CC(C)c1c(O)ccc2c1CCC1[C@@](C)(C=O)CCC[C@]21C (some centres undefined)
  Kd: > 4 mM (inactive)
